Test results from BindingDB's records for patent US12084442 (Novartis, 2024).

Target: T1, G protein-activated inward rectifier potassium channel 1/4 (Homo sapiens, UniProt P48544+P48549)
T1 sequence (P48549 whole entry): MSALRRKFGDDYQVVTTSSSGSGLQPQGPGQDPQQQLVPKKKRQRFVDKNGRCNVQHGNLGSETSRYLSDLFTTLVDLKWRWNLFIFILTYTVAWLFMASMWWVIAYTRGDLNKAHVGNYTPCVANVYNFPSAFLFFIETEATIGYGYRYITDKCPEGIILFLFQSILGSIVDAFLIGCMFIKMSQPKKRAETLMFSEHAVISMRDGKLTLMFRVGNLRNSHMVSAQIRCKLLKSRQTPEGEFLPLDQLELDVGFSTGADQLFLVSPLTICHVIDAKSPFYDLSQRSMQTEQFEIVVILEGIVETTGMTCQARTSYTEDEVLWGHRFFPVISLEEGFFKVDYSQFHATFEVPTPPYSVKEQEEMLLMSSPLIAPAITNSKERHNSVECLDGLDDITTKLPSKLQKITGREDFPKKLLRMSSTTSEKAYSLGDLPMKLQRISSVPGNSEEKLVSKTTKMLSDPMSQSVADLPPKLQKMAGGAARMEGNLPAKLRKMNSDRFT
T1 sequence (P48544 whole entry): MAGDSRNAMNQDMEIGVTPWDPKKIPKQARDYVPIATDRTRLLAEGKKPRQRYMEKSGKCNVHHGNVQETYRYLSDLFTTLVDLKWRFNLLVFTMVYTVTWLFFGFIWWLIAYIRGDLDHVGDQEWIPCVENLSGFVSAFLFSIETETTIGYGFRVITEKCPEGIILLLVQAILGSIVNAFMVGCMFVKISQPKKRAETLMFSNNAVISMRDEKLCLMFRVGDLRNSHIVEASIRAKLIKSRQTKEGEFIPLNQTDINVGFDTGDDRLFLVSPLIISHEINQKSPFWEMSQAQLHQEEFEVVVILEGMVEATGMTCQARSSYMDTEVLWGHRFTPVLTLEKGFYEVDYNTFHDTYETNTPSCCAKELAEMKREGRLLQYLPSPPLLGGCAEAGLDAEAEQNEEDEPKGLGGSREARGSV
Test: GIRK1/4 Activity Assay
Procedure: The GIRK1/4 activity of a compound according to the present invention was assessed by the following in vitro method.Buffers:a. External buffer: 10 mM NaCl, 50 mM Na Gluconate, 80 mM K Gluconate, 1.8 mM CaCl2, 1 mM MgCl2, 10 mM HEPES, 10 mM Glucose, pH 7.4; osmolarity 300-310 […].b. Internal buffer: 30 mM KCl, 100 mM K Gluconate, 1 mM MgCl2, 10 mM HEPES, 1 mM EGTA, 10 mM NaCl, pH 7.2; osmolarity […].Compounds:c. Prepare seven-fold compound dilution series (10 mM to 20 uM) in 100% DMSO, in 384-well polypropylene plates.d. Propafenone (Sigma Aldrich, catalog number P4670) was used as a positive control and DMSO for neutral controle. Resuspend 1 μl of compounds in DMSO into 66.7 μl external buffer in 384-well polypropylene plate and load into Plate 1 section of Molecular Devices Quattro Quattro Setup:f. Load 384-well Population Patch Plate (Molecular Devices #9000-0902) into Quattrog. Fill Quattro F-soak trough with 20% DMSO and 50% EtOHh. Fill Quattro buffer trough with external bufferi. Attach internal buffer flask to Quattro internal buffer tubingj. Attach PBS (Phosphate Buffered Saline, minus Ca++ and Mg++, pH7.4) bottle to F-head & E-head wash on QuattroAntibiotic:k. […] Measured magnitude of inward potassium current at time point between 1200-1220 ms from start of Pulse 1 (i.e., during the voltage ramp phase).t. […]

Q: `Cc1cc(=O)c2c(OCCC(N)=O)ncc(Cl)c2n1-c1c(Cl)cc(OCCO)cc1Cl` [US12084442, Example 18] was tested. Which IC50 did it give?
A: 30 nM
